The record followed here is patent publication US20130196362A1, “DIARYLAMINE-BASED FLUOROGENIC PROBES FOR DETECTION OF PEROXYNITRITE” (THE UNIVERSITY OF HONG KONG, priority 2012, published 2013).

A short description of data set [1]: Reactivity of probe toward different ROS and RNS (selectivity) in phosphate buffer. Particulars: for increase in fluorescence intensity with peroxynitrite versus other ROS and RNS: OCl-, pH 7.4. On the procedure: (§1) FIG. 1A depicts fluorescence spectra showing fluorescence intensities of compound 2 after treatment with different amounts of peroxynitrite. […] The spectra were acquired by dissolving Compound 2 in 0.1 M phosphate buffer at pH 7.4 to form a 1 μM solution, with excitation and emission spectra at 510 nm and 530 nm, respectively. The concentration of highly reactive oxygen species hydroxyl radical (.OH), hypochlorous acid (^−OCl), and peroxynitrite (ONOO^−) is 1 μM. The concentration of ^1O2, O2.^−, NO, ROO. and H2O2 is 10 μM.
(§2) FIG. 2A depicts fluorescence spectra showing fluorescence intensities of Compound 11 after treatment with different amounts of peroxynitrite. […] The spectra were acquired by dissolving […] in 0.1M phosphate buffer at pH 7.4 to form a 2 μM solution, with excitation and emission at 547 nm and 570 nm, respectively. The concentration of highly reactive oxygen species hydroxyl radical (.OH), hypochlorous acid (^−OCl), and peroxynitrite (ONOO^−) is 2 μM. The concentration of ^1O2, O2.^−, NO, ROO. and H2O2 is 20 μM.
(§3) FIG. 3A depicts fluorescence spectra showing fluorescence intensities of Compound 22 after treatment with different amounts of peroxynitrite. […] The spectra were acquired by dissolving Compound 22 in 0.1M phosphate buffer at pH 7.4 to form a 5 μM solution, with excitation at 600 nm and emission at 617 nm, respectively. The concentration of highly reactive oxygen species hydroxyl radical (.OH), hypochlorous acid (^−OCl), and peroxynitrite (ONOO^−) is 5 μM. The concentration of ^1O2, O2.^−, NO, ROO. and H2O2 is 50 μM.
(§4) FIG. 4A depicts fluorescence spectra showing fluorescence intensities of Compound 25 after treatment with different amounts of peroxynitrite. […] The spectra were acquired by dissolving Compound 25 in 0.1M phosphate buffer at pH 7.4 to form a 5 μM solution, with excitation at 650 nm and emission at 665 nm, respectively. The concentration of highly reactive oxygen species hydroxyl radical (.OH), hypochlorous acid (^−OCl), and peroxynitrite (ONOO^−) is 5 μM. The concentration of ^1O2, O2.^−, NO, ROO. and H2O2 is 50 μM.
(§5) FIG. 5A depicts fluorescence spectra showing fluorescence intensities of Compound 30 after treatment with different amounts of peroxynitrite. […] The spectra were acquired by dissolving Compound 30 in 0.1 M phosphate buffer at pH 7.4 and exciting at 515 nm. The concentration of highly reactive oxygen species hypochlorous acid (^−OCl) and peroxynitrite (ONOO^−) is 1 μM. The concentration of hydroxyl radical (.OH) is 1 μM or 10 μM. The concentration of ^1O2, O2.^−, NO, ROO. and H2O2 is 10 μM or 100 μM. (see figure for exact concentrations of certain ROS and RNS)
The reactivity of Compound 2 is compared toward different reactive oxygen species (ROS) and reactive nitrogen species (RNS). Specifically, the 1 μM solution of compound 2 is treated with various ROS and RNS. The concentration of highly reactive oxygen species (hydroxyl radical (.OH), hypochlorous acid (^−OCl), and peroxynitrite (ONOO^−)) is 1 μM. The concentration of ^1O2, O2.^−, NO, ROO. and H2O2 is 10 μM.
The reactivity of Compound 11 is compared with different reactive oxygen species (ROS) and reactive nitrogen species (RNS). Specifically, the 2 μM solution of compound 11 is treated with various ROS and RNS. The concentration of highly reactive oxygen species (hydroxyl radical (.OH), hypochlorous acid (^−OCl), and peroxynitrite (ONOO^−)) is 2 μM. The concentration of ^1O2, O2.^−, NO, ROO. and H2O2 is 20 μM.
The reactivity of Compound 22 is compared with different reactive oxygen species (ROS) and reactive nitrogen species (RNS). Specifically, the 5 μM solution of compound 22 is treated with various ROS and RNS. The concentration of highly reactive oxygen species (hydroxyl radical (.OH), hypochlorous acid (^−OCl), and peroxynitrite (ONOO^−)) is 5 μM. The concentration of ^1O2, O2.^−, NO, ROO. and H2O2 is 50 μM. […]

The nature of data set [2]: Fluorescence response of probe to increasing peroxynitrite in phosphate buffer. On the procedure: as §1, §2, §3, §4, §5
Specifically, Compound 2 is dissolved in 0.1 M phosphate buffer at pH 7.4 to form a 1 μM solution, with excitation and emission spectra at 510 nm and 530 nm, respectively. The 1 μM solution of Compound 2 is treated with peroxynitrite at various concentrations.
Specifically, Compound 11 is dissolved in 0.1 M phosphate buffer at pH 7.4 to form a 2 μM solution, with excitation and emission spectra at 547 nm and 570 nm, respectively. The 2 μM solution of Compound 11 is treated with peroxynitrite at various concentrations.
Specifically, Compound 22 is dissolved in 0.1 M phosphate buffer at pH 7.4 to form a 5 μM solution, with excitation and emission spectra at 600 nm and 617 nm, respectively. The 5 μM solution of Compound 22 is treated with peroxynitrite at various concentrations. […]

For data set [3], the system named is C17.2 neural progenitor cells. Kind of data set: Fluorescent microscopy of C17.2 cells with or without SIN-1. As to conditions: for fluorescence in the absence of stimulants: no SIN-1; for fluorescence after treatment with stimulants: with SIN-1. The format is cell-based, Mouse. On the procedure: The cells were incubated with Compound 20 or 21 at a concentration of 1 μM, and then treated with (Lower) or without (Upper) SIN-1.
The cells were incubated with Compound 32 at a concentration of 5 μM.
(§6) Human SH-SY5Y neuroblastoma cells (ATCC, USA) were maintained in high glucose Dulbecco's Modified Eagle Medium (DMEM, Hyclone) supplemented with 10% fetal bovine serum (FBS, Gibco), 1% penicillin/streptomycin (PS, Gibco) and 1% L-glutamine (Gibco). Mouse C17.2 neural progenitor cells (ATCC, USA) were maintained in high glucose Dulbecco's Modified Eagle Medium supplemented with 8% fetal bovine serum (Gibco), 4% horse serum (Gibco), 1% penicillin/streptomycin and 1% L-glutamine. Mouse RAW264.7 macrophage cells (ATCC, USA) were maintained in high glucose Dulbecco's Modified Eagle Medium (DMEM, Hyclone) supplemented with 10% fetal bovine serum (Gibco), 1% penicillin/streptomycin (Gibco) and 1% L-glutamine.
(§7) Generally, cells were grown to confluence prior to experiment. Cells were incubated with Compounds) 6, 7, 8, 14, 20, 21, 24, 27, and 32, respectively for 1 hr, and then washed three times with PBS buffer.

In data set [4] the test system is SH-SY5Y neuroblastoma cells. As to the kind of experiment: Fluorescent microscopy of SH-SY5Y cells with or without SIN-1. The format is cell-based, Human. As to conditions: incubated 1 hr; for fluorescence in the absence of stimulants: washed with PBS, no SIN-1; for fluorescence after treatment with stimulants: with SIN-1. On the procedure:
SH-SY5Y cells were co-stained with different compounds with or without SIN-1 for 1 h, and then washed quickly with PBS for 3 times and maintained in non-phenol red medium. Left: no SIN-1 treatment; Right: with SIN-1 treatment.
SH-SY5Y cells were co-stained with different compounds with or without SIN-1 for 1 h, and then washed quickly with PBS for 3 times and maintained in non-phenol red medium. Left: no SIN-1 treatment; Middle: with 1 mM SIN-1 treatment; Right: with 100 μM SIN-1 treatment.
SH-SY5Y cells were co-stained with different compounds with or without SIN-1 for 1 h, and then washed quickly with PBS for 3 times and maintained in non-phenol red medium. Left: no SIN-1 treatment; Middle: with 100 μM SIN-1 treatment; Right: with 200 μM SIN-1 treatment.
as §6, §7

With `CN(c1ccc(O)cc1)c1ccc2c(-c3ccccc3C(=O)N3CCN(C(=O)CCCC[P+](c4ccccc4)(c4ccccc4)c4ccccc4)CC3)c3ccc(=O)cc-3oc2c1` [Compound 30], in data set [1] (1 μM solution of compound 30, ex 515 nm, em 540 nm, ONOO- 1 μM, .OH 1 or 10 μM, others 10 or 100 μM), the “increase in fluorescence intensity with peroxynitrite versus other ROS and RNS” value (“increase in fluorescence intensity” for short) was “sensitively and selectively detects peroxynitrite”. Besides, in data set [1] (0.1 M phosphate buffer pH 7.4, exciting at 515 nm), the emission maximum was determined as 540 nm. Moreover, the “fluorescence intensity after treatment with peroxynitrite at various concentrations” value (“fluorescence intensity after treatment” for short) in data set [2] (1 μM solution in 0.1 M phosphate buffer pH 7.4, excited at 515 nm) is given as “increases with increasing concentration of peroxynitrite”.

Consider `CC[N+]1=c2cc3c(cc2C(C)CC1(C)C)=C(c1ccc(CCl)cc1C)c1ccc(N(C)c2ccc(O)cc2)cc1O3` (stereo not drawn) [Compound 20], for which, in data set [3], the “fluorescence in the absence of stimulants” value (“fluorescence in the absence” for short) is listed as “very weak fluorescence” and the “fluorescence after treatment with stimulants” value (from here on “fluorescence after treatment”) was “strongly induced”.

Turning to `COC(=O)CN(CC(=O)OC)C(=O)c1ccc2c(c1)C(=O)OC21c2ccc(OC(C)=O)cc2Oc2cc(N(C)c3ccc(O)cc3)ccc21` (stereo not drawn) [Compound 7], in data set [4], the “fluorescence in the absence” value is given as “very weak fluorescence” and the “fluorescence after treatment” value is given as “strongly induced”.

Regarding `CC[N+]1=c2cc3c(cc2C(C)CC1(C)C)=C(c1ccc(C)cc1C)c1ccc(N(C)c2ccc(O)cc2)cc1O3` (stereo not drawn) [Compound 21], in data set [3], the “fluorescence in the absence” value is recorded as “very weak fluorescence” and the “fluorescence after treatment” value was “strongly induced”.

Regarding `CC1CC(C)(C)[N+](CCCC(=O)O)=c2cc3c(cc21)=C(c1ccccc1C(=O)O)c1cc(Cl)c(N(C)c2ccc(O)cc2)cc1O3` (stereo not drawn) [Compound 11], the “increase in fluorescence intensity” value in data set [1] (2 μM probe, .OH, ONOO- 2 μM, 1O2, O2.-, NO, ROO., H2O2 20 μM) is listed as “much higher increase in fluorescence intensity”. The “fluorescence intensity after treatment” value in data set [2] (2 μM solution in 0.1 M phosphate buffer pH 7.4, excitation 547 nm, emission 570 nm) is reported as “increases with increasing concentration of peroxynitrite”.

`COC(=O)CCN(CCC(=O)OC)C(=O)c1ccc2c(c1)C(=O)OC21c2ccc(OC(C)=O)cc2Oc2cc(N(C)c3ccc(O)cc3)ccc21` (stereo not drawn) [Compound 8]: in data set [4], the “fluorescence in the absence” value is “very weak fluorescence” and the “fluorescence after treatment” value is “strongly induced”.

With `CC[N+]1=c2cc3c(cc2C(C)CC1(C)C)=C(c1ccc(C(=O)O)cc1C)c1ccc(N(C)c2ccc(O)cc2)cc1[Si]3(C)C` (stereo not drawn) [Compound 25], the “increase in fluorescence intensity” value in data set [1] (5 μM probe, ex 650/em 665 nm, .OH, ONOO- 5 μM, 1O2, O2.-, NO, ROO., H2O2 50 μM) is “much higher increase in fluorescence intensity”. The “fluorescence intensity after treatment” value in data set [2] (5 μM solution in 0.1 M phosphate buffer pH 7.4, excitation 650 nm, emission 665 nm) is “increases with increasing concentration of peroxynitrite”.

As to `Cc1cc(C(=O)O)ccc1C1=C2C=CC(=O)C=C2[Si](C)(C)c2cc(N(C)c3ccc(O)cc3)ccc21` [Compound 22], the “increase in fluorescence intensity” value in data set [1] (5 μM probe, ex 600/em 617 nm, .OH, ONOO- 5 μM, 1O2, O2.-, NO, ROO., H2O2 50 μM) is given as “much higher increase in fluorescence intensity”. In addition, the “fluorescence intensity after treatment” value in data set [2] (5 μM solution in 0.1 M phosphate buffer pH 7.4, excitation 600 nm, emission 617 nm) is given as “increases with increasing concentration of peroxynitrite”.

In the case of `COC(=O)CN(CC(=O)OC)C(=O)c1ccc(C2=C3C=CC(=O)C=C3[Si](C)(C)c3cc(N(C)c4ccc(O)cc4)ccc32)c(C)c1` [Compound 24], in data set [4], the “fluorescence in the absence” value is listed as “very weak fluorescence” and the “fluorescence after treatment” value is recorded as “strongly induced”.

For `CN(c1ccc(O)cc1)c1ccc2c(-c3ccc(C(=O)N(CC(=O)O)CC(=O)O)cc3C(=O)O)c3ccc(=O)cc-3oc2c1` [Compound 2], in data set [1] (1 μM probe, .OH, ONOO- 1 μM, 1O2, O2.-, NO, ROO., H2O2 10 μM), the “increase in fluorescence intensity” value was “much higher increase in fluorescence intensity”. For the same compound, the “fluorescence intensity after treatment” value in data set [2] (1 μM solution in 0.1 M phosphate buffer pH 7.4, excitation 510 nm, emission 530 nm) is reported as “increases with increasing concentration of peroxynitrite”.
